Experimental data from the NIST ThermoML archive (doi:10.1021/je049609w).
Several values for one entry are separate records, joined by “and”; a condition that tells them apart may be missing. Equal values may be shown once.

Key:
[1] = 101 kPa, Liquid
[2] = refractive index (Na D-line) (dimensionless); details: 101.33 kPa, Liquid
[3] = xn = mol fraction of the nth substance listed; details: 101 kPa, Liquid
[4] = refractive index (Na D-line) (dimensionless); xn = mol fraction of the nth substance listed; details: 101 kPa, Liquid

Clc1ccccc1Cl [1,2-dichlorobenzene]
Details	mass density, 298.15 K [kg/m3]	mass density, 303.15 K [kg/m3]	mass density, 308.15 K [kg/m3]	refractive index, 298.15 K	refractive index, 303.15 K	refractive index, 308.15 K	speed of sound, 298.15 K [m/s]	viscosity, 298.15 K [mPa·s]	viscosity, 303.15 K [mPa·s]	viscosity, 308.15 K [mPa·s]
[1]	1300.9	1295.4	1289.7	–	–	–	1280	1.324	1.214	1.105
[2]	–	–	–	1.5499	1.5476	1.545	–	–	–	–

C1COCCO1 [1,4-dioxane]
Details	mass density, 298.15 K [kg/m3]	mass density, 303.15 K [kg/m3]	mass density, 308.15 K [kg/m3]	refractive index, 298.15 K	refractive index, 303.15 K	refractive index, 308.15 K	speed of sound, 298.15 K [m/s]	viscosity, 298.15 K	viscosity, 303.15 K	viscosity, 308.15 K [mPa·s]
[1]	1028.6	1022.9	1017.2	–	–	–	1345	1.196 mPa·s and 1.195 mPa·s	1.102 mPa·s and 1.095 mPa·s	1.008
[2]	–	–	–	1.4203	1.4164	1.4145	–	–	–	–

OCCCl [1-chloro-2-hydroxyethane]
Details	mass density, 298.15 K [kg/m3]	mass density, 303.15 K [kg/m3]	mass density, 308.15 K [kg/m3]	refractive index, 298.15 K	refractive index, 303.15 K	refractive index, 308.15 K	speed of sound, 298.15 K [m/s]	viscosity, 298.15 K [mPa·s]	viscosity, 303.15 K [mPa·s]	viscosity, 308.15 K [mPa·s]
[1]	1200.9	1192.5	1187.1	–	–	–	1358	3.104	2.669	2.347
[2]	–	–	–	1.4411	1.438	1.4326	–	–	–	–

CC(=O)N(C)C [N,N-dimethylethanamide]
Details	mass density, 298.15 K [kg/m3]	mass density, 303.15 K [kg/m3]	mass density, 308.15 K [kg/m3]	refractive index, 298.15 K	refractive index, 303.15 K	refractive index, 308.15 K	speed of sound, 298.15 K [m/s]	viscosity, 298.15 K [mPa·s]	viscosity, 303.15 K [mPa·s]	viscosity, 308.15 K [mPa·s]
[1]	946.8	942.1	937.5	–	–	–	1458	1.261	1.154	1.047
[2]	–	–	–	1.4363	1.4342	1.432	–	–	–	–

CCCCO [butan-1-ol]
Details	mass density, 298.15 K [kg/m3]	mass density, 303.15 K [kg/m3]	mass density, 308.15 K [kg/m3]	refractive index, 298.15 K	refractive index, 303.15 K	refractive index, 308.15 K	speed of sound, 298.15 K [m/s]	viscosity, 298.15 K [mPa·s]	viscosity, 303.15 K [mPa·s]	viscosity, 308.15 K [mPa·s]
[1]	805.8	802	798	–	–	–	1237	2.564	2.245	1.981
[2]	–	–	–	1.3983	1.3955	1.3937	–	–	–	–

CCOC(=O)CC(=O)OCC [diethyl 1,3-propanedioate]
Details	mass density, 298.15 K [kg/m3]	mass density, 303.15 K [kg/m3]	mass density, 308.15 K [kg/m3]	refractive index, 298.15 K	refractive index, 303.15 K	refractive index, 308.15 K	speed of sound, 298.15 K [m/s]	viscosity, 298.15 K [mPa·s]	viscosity, 303.15 K [mPa·s]	viscosity, 308.15 K [mPa·s]
[1]	1049.6	1044.2	1038.8	–	–	–	1304	1.941	1.755	1.602
[2]	–	–	–	1.4132	1.4108	1.4085	–	–	–	–

CCOC(=O)CC(=O)OCC [diethyl 1,3-propanedioate] + C1COCCO1
Details	mass density, 298.15 K [kg/m3]	mass density, 303.15 K [kg/m3]	mass density, 308.15 K [kg/m3]	refractive index, 298.15 K	refractive index, 303.15 K	refractive index, 308.15 K	speed of sound, 298.15 K [m/s]	viscosity, 298.15 K [mPa·s]	viscosity, 303.15 K [mPa·s]	viscosity, 308.15 K [mPa·s]
[3], x2 = 0	1049.6	1044.2	1038.8	–	–	–	1304	1.941	1.755	1.602
[3], x2 = 0.1005	1048.1	1042.8	1037.4	–	–	–	1308	1.858	1.698	1.537
[3], x2 = 0.1982	1046.6	1041.2	1035.8	–	–	–	1312	1.777	1.626	1.476
[3], x2 = 0.2959	1044.9	1039.6	1034.2	–	–	–	1316	1.7	1.556	1.413
[3], x2 = 0.3959	1043	1037.7	1032.3	–	–	–	1320	1.619	1.484	1.349
[3], x2 = 0.4959	1041	1035.6	1030.2	–	–	–	1324	1.542	1.415	1.287
[3], x2 = 0.5951	1038.8	1033.4	1028	–	–	–	1328	1.465	1.346	1.227
[3], x2 = 0.6944	1036.4	1030.9	1025.5	–	–	–	1332	1.391	1.28	1.17
[3], x2 = 0.796	1033.7	1028.2	1022.8	–	–	–	1337	1.316	1.214	1.111
[3], x2 = 0.8977	1030.9	1025.4	1019.9	–	–	–	1341	1.249	1.153	1.057
[4], x2 = 0	–	–	–	1.4132	1.4108	1.4085	–	–	–	–
[4], x2 = 0.1005	–	–	–	1.4135	1.4113	1.409	–	–	–	–
[4], x2 = 0.1982	–	–	–	1.4139	1.412	1.4093	–	–	–	–
[4], x2 = 0.2959	–	–	–	1.4143	1.4123	1.4095	–	–	–	–
[4], x2 = 0.3959	–	–	–	1.4147	1.4127	1.4099	–	–	–	–
[4], x2 = 0.4959	–	–	–	1.415	1.4137	1.4103	–	–	–	–
[4], x2 = 0.5951	–	–	–	1.4161	1.4147	1.4113	–	–	–	–
[4], x2 = 0.6944	–	–	–	1.4171	1.4157	1.4122	–	–	–	–
[4], x2 = 0.796	–	–	–	1.4181	1.4167	1.4132	–	–	–	–
[4], x2 = 0.8977	–	–	–	1.4192	1.4231	1.4141	–	–	–	–

CCOC(C)=O [ethyl acetate]
Details	mass density, 298.15 K [kg/m3]	mass density, 303.15 K [kg/m3]	mass density, 308.15 K [kg/m3]	refractive index, 298.15 K	refractive index, 303.15 K	refractive index, 308.15 K	speed of sound, 298.15 K [m/s]	viscosity, 298.15 K [mPa·s]	viscosity, 303.15 K [mPa·s]	viscosity, 308.15 K [mPa·s]
[1]	894.2	887.9	881.6	–	–	–	1155	0.438	0.414	0.392
[2]	–	–	–	1.3713	1.3673	1.3631	–	–	–	–

CCOC(C)=O [ethyl acetate] + C1COCCO1
x2 = 0
Details	mass density, 298.15 K [kg/m3]	mass density, 303.15 K [kg/m3]	mass density, 308.15 K [kg/m3]	refractive index, 298.15 K	refractive index, 303.15 K	refractive index, 308.15 K	speed of sound, 298.15 K [m/s]	viscosity, 298.15 K [mPa·s]	viscosity, 303.15 K [mPa·s]	viscosity, 308.15 K [mPa·s]
[3]	894.2	887.9	881.6	–	–	–	1155	0.438	0.414	0.392
[4]	–	–	–	1.3713	1.3673	1.3631	–	–	–	–

ClC=C(Cl)Cl [trichloroethene]
Details	mass density, 298.15 K [kg/m3]	mass density, 303.15 K [kg/m3]	mass density, 308.15 K [kg/m3]	refractive index, 298.15 K	refractive index, 303.15 K	refractive index, 308.15 K	speed of sound, 298.15 K [m/s]	viscosity, 298.15 K [mPa·s]	viscosity, 303.15 K [mPa·s]	viscosity, 308.15 K [mPa·s]
[1]	1455.4	1447	1438.5	–	–	–	1027	0.573	0.547	0.521
[2]	–	–	–	1.476	1.4729	1.4698	–	–	–	–

ClC=C(Cl)Cl [trichloroethene] + C1COCCO1
Details	mass density, 298.15 K [kg/m3]	mass density, 303.15 K [kg/m3]	mass density, 308.15 K [kg/m3]	refractive index, 298.15 K	refractive index, 303.15 K	refractive index, 308.15 K	speed of sound, 298.15 K [m/s]	viscosity, 298.15 K [mPa·s]	viscosity, 303.15 K [mPa·s]	viscosity, 308.15 K [mPa·s]
[3], x2 = 0	1455.4	1447	1438.5	–	–	–	1027	0.573	0.547	0.521
[3], x2 = 0.1006	1412.7	1404.6	1396.4	–	–	–	1059	0.635	0.602	0.569
[3], x2 = 0.201	1370.1	1362.2	1354.2	–	–	–	1091	0.697	0.658	0.618
[3], x2 = 0.2983	1327.9	1320.3	1312.8	–	–	–	1122	0.758	0.712	0.665
[3], x2 = 0.3995	1284.4	1277.2	1270	–	–	–	1152	0.821	0.768	0.714
[3], x2 = 0.507	1238.6	1231.5	1224.5	–	–	–	1187	0.888	0.827	0.767
[3], x2 = 0.5993	1199.3	1192.5	1185.7	–	–	–	1215	0.945	0.878	0.812
[3], x2 = 0.6969	1158.5	1152.1	1145.6	–	–	–	1246	1.006	0.933	0.859
[3], x2 = 0.802	1114	1107.7	1101.5	–	–	–	1276	1.072	0.991	0.911
[3], x2 = 0.9003	1072.1	1066.2	1060	–	–	–	1307	1.133	1.046	0.959
[4], x2 = 0	–	–	–	1.476	1.4729	1.4698	–	–	–	–
[4], x2 = 0.1006	–	–	–	1.4704	1.4673	1.4643	–	–	–	–
[4], x2 = 0.201	–	–	–	1.4648	1.4618	1.4587	–	–	–	–
[4], x2 = 0.2983	–	–	–	1.4592	1.4562	1.4532	–	–	–	–
[4], x2 = 0.3995	–	–	–	1.4536	1.4507	1.4477	–	–	–	–
[4], x2 = 0.507	–	–	–	1.4476	1.4446	1.4417	–	–	–	–
[4], x2 = 0.5993	–	–	–	1.4426	1.4396	1.4366	–	–	–	–
[4], x2 = 0.6969	–	–	–	1.4373	1.4344	1.4315	–	–	–	–
[4], x2 = 0.802	–	–	–	1.4314	1.4285	1.4256	–	–	–	–
[4], x2 = 0.9003	–	–	–	1.426	1.4231	1.4202	–	–	–	–
